Like-named read-outs stand apart in the source and are kept apart here.

Pest or weed control data for nine compounds are collected here from US10206394B2, “Herbicidal compounds” (Syngenta Participations AG, priority 2014, dated 2019).

Holding throughout (assay): Glasshouse assay for herbicidal activity (pre- and post-emergence), percentage phytotoxicity
Common to all, as to format: in vivo

The test system of experiment [1] is Echinochloa crus-galli (ECHCG). The note with it: Echinochloa crus-galli. The method in brief:
(§1)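 Potted test plants in standard soil received the compound pre-emergence (day 1) or post-emergence (about day 12). Evaluation: visual damage score from 0% (none) to 100% (total), 15 days after application post-emergence, 20 days pre-emergence.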

The test system of the next experiment is Lolium perenne (LOLPE). To be noted: Lolium perenne. The method in brief: as §1
Experiment [2] relates to Alopecurus myosuroides (ALOMY). To be noted: Alopecurus myosuroides. A digest of the protocol: as §1
For the next experiment, the system named is Avena fatua (AVEFA). To be noted: Avena fatua. A digest of the protocol:
as §1

Setting [3] is: post-emergence, 360 h, Rate 250 g/ha, post-emergence, assessed visually 15 DAA, 100%=total damage, 0%=no damage, read-out: Post-emergence herbicidal activity (percentage phytotoxicity) ECHCG POST.
Setting [4] is: pre-emergence, 480 h, Rate 250 g/ha, pre-emergence, assessed visually 20 DAA, 100%=total damage, 0%=no damage, read-out: Pre-emergence herbicidal activity (percentage phytotoxicity) ECHCG PRE.
Setting [5] is: post-emergence, 360 h, Rate 250 g/ha, post-emergence, assessed visually 15 DAA, 100%=total damage, 0%=no damage, read-out: Post-emergence herbicidal activity (percentage phytotoxicity) LOLPE POST.
The mark [6] stands for this setting: pre-emergence, 480 h, Rate 250 g/ha, pre-emergence, assessed visually 20 DAA, 100%=total damage, 0%=no damage, read-out: Pre-emergence herbicidal activity (percentage phytotoxicity) LOLPE PRE.
The mark [7] stands for this setting: post-emergence, 360 h, Rate 250 g/ha, post-emergence, assessed visually 15 DAA, 100%=total damage, 0%=no damage, read-out: Post-emergence herbicidal activity (percentage phytotoxicity) ALOMY POST.
Setting [8] is: pre-emergence, 480 h, Rate 250 g/ha, pre-emergence, assessed visually 20 DAA, 100%=total damage, 0%=no damage, read-out: Pre-emergence herbicidal activity (percentage phytotoxicity) ALOMY PRE.
Setting [9] is: post-emergence, 360 h, Rate 250 g/ha, post-emergence, assessed visually 15 DAA, 100%=total damage, 0%=no damage, read-out: Post-emergence herbicidal activity (percentage phytotoxicity) AVEFA POST.
Setting [10] is: pre-emergence, 480 h, Rate 250 g/ha, pre-emergence, assessed visually 20 DAA, 100%=total damage, 0%=no damage, read-out: Pre-emergence herbicidal activity (percentage phytotoxicity) AVEFA PRE.
[11] abbreviates: post-emergence, 360 h, POST-emergence, rate 250 g/ha, visual score 15 DAA (100%=total damage, 0%=no damage), read-out: Post-emergence herbicidal activity (percentage phytotoxicity) ECHCG POST.
[12] abbreviates: pre-emergence, 480 h, PRE-emergence, rate 250 g/ha, visual score 20 DAA (100%=total damage, 0%=no damage), read-out: Pre-emergence herbicidal activity (percentage phytotoxicity) ECHCG PRE.
Where [13] appears, read: post-emergence, 360 h, POST-emergence, rate 250 g/ha, visual score 15 DAA (100%=total damage, 0%=no damage), read-out: Post-emergence herbicidal activity (percentage phytotoxicity) LOLPE POST.
[14] abbreviates: pre-emergence, 480 h, PRE-emergence, rate 250 g/ha, visual score 20 DAA (100%=total damage, 0%=no damage), read-out: Pre-emergence herbicidal activity (percentage phytotoxicity) LOLPE PRE.
[15] abbreviates: post-emergence, 360 h, POST-emergence, rate 250 g/ha, visual score 15 DAA (100%=total damage, 0%=no damage), read-out: Post-emergence herbicidal activity (percentage phytotoxicity) ALOMY POST.
Setting [16] is: pre-emergence, 480 h, PRE-emergence, rate 250 g/ha, visual score 20 DAA (100%=total damage, 0%=no damage), read-out: Pre-emergence herbicidal activity (percentage phytotoxicity) ALOMY PRE.
The mark [17] stands for this setting: post-emergence, 360 h, POST-emergence, rate 250 g/ha, visual score 15 DAA (100%=total damage, 0%=no damage), read-out: Post-emergence herbicidal activity (percentage phytotoxicity) AVEFA POST.
The mark [18] stands for this setting: pre-emergence, 480 h, PRE-emergence, rate 250 g/ha, visual score 20 DAA (100%=total damage, 0%=no damage), read-out: Pre-emergence herbicidal activity (percentage phytotoxicity) AVEFA PRE.
Where [19] appears, read: post-emergence, 360 h, 250 g/ha, post-emergence, 15 DAA, visual assessment (100%=total damage, 0%=no damage), read-out: Post-emergence herbicidal activity (percentage phytotoxicity) ECHCG POST.
The mark [20] stands for this setting: pre-emergence, 480 h, 250 g/ha, pre-emergence, 20 DAA, visual assessment (100%=total damage, 0%=no damage), read-out: Pre-emergence herbicidal activity (percentage phytotoxicity) ECHCG PRE.
Setting [21] is: post-emergence, 360 h, 250 g/ha, post-emergence, 15 DAA, visual assessment (100%=total damage, 0%=no damage), read-out: Post-emergence herbicidal activity (percentage phytotoxicity) LOLPE POST.
The mark [22] stands for this setting: pre-emergence, 480 h, 250 g/ha, pre-emergence, 20 DAA, visual assessment (100%=total damage, 0%=no damage), read-out: Pre-emergence herbicidal activity (percentage phytotoxicity) LOLPE PRE.
Where [23] appears, read: post-emergence, 360 h, 250 g/ha, post-emergence, 15 DAA, visual assessment (100%=total damage, 0%=no damage), read-out: Post-emergence herbicidal activity (percentage phytotoxicity) ALOMY POST.
Where [24] appears, read: pre-emergence, 480 h, 250 g/ha, pre-emergence, 20 DAA, visual assessment (100%=total damage, 0%=no damage), read-out: Pre-emergence herbicidal activity (percentage phytotoxicity) ALOMY PRE.
[25] abbreviates: post-emergence, 360 h, 250 g/ha, post-emergence, 15 DAA, visual assessment (100%=total damage, 0%=no damage), read-out: Post-emergence herbicidal activity (percentage phytotoxicity) AVEFA POST.
The mark [26] stands for this setting: pre-emergence, 480 h, 250 g/ha, pre-emergence, 20 DAA, visual assessment (100%=total damage, 0%=no damage), read-out: Pre-emergence herbicidal activity (percentage phytotoxicity) AVEFA PRE.

As for `Cc1cc(-c2ncc(F)cn2)cc(C)c1C1C(=O)CC(CC(=O)NCc2ncccc2Cl)C1=O` (stereo not drawn) [Compound A140], the pest or weed control at 250 g/ha was found to be 100% in experiment [1] (setting [3]); 100% in experiment [1] (setting [4]); 90% in the experiment on Lolium perenne (LOLPE) (setting [5]); 100% with Lolium perenne (LOLPE) (setting [6]); 100% in experiment [2] (setting [7]); 90% in experiment [2] (setting [8]). The pest or weed control at 250 g/ha in the experiment with Avena fatua (AVEFA) (setting [9]) and with Avena fatua (AVEFA) (setting [10]) was 100% in each case.

As to `Cc1cc(-c2ncc(F)cn2)cc(C)c1C1C(=O)CC(CC(=O)NC2CC2F)C1=O` (stereo not drawn) [Compound B293], the pest or weed control at 250 g/ha in experiment [1] (setting [11]) was found to be 100%; in experiment [1] (setting [12]) it was 90%; in the experiment with Lolium perenne (LOLPE) (setting [13]) it was 90%; in the experiment with Lolium perenne (LOLPE) (setting [14]), 90%; in experiment [2] (setting [15]) it was 100%; in experiment [2] (setting [16]), 90%. In addition, the figures for the pest or weed control at 250 g/ha in the experiment on Avena fatua (AVEFA) (setting [17]) and in the experiment on Avena fatua (AVEFA) (setting [18]) were 100% and 60%, respectively.

On to `Cc1cc(C)c(C2C(=O)CC(CC(=O)NCC=C(Cl)Cl)C2=O)c(C)c1` (stereo not drawn) [Compound B159], for which the pest or weed control at 250 g/ha in experiment [1] (setting [19]) turned out to be 80%; in experiment [1] (setting [20]) it was 90%; with Lolium perenne (LOLPE) (setting [21]), 90%; with Lolium perenne (LOLPE) (setting [22]), 90%; in experiment [2] (setting [23]), 70%; in experiment [2] (setting [24]), 80%. For the same compound, the pest or weed control at 250 g/ha worked out at 90% in the experiment on Avena fatua (AVEFA) (setting [25]) and 0% in the experiment on Avena fatua (AVEFA) (setting [26]).

`C#CC(C)(C)NC(=O)CC1CC(=O)C(c2c(C)cc(-c3ncc(F)cn3)cc2C)C1=O` (stereo not drawn) [Compound B113]: the pest or weed control at 250 g/ha in experiment [1] (setting [19]) turned out to be 100%; in experiment [1] (setting [20]), 100%; with Lolium perenne (LOLPE) (setting [21]) it was 100%; in the experiment with Lolium perenne (LOLPE) (setting [22]), 90%; in experiment [2] (setting [23]), 100%; in experiment [2] (setting [24]) it was 90%. Also, the pest or weed control at 250 g/ha in the experiment on Avena fatua (AVEFA) (setting [25]) stood at 100%; with Avena fatua (AVEFA) (setting [26]), 90%.

On to `Cc1cc(C)c(C2C(=O)CC(CC(=O)NCCC#N)C2=O)c(C)c1` (stereo not drawn) [Compound A86], for which the pest or weed control at 250 g/ha in experiment [1] (setting [3]) was 80%; in experiment [1] (setting [4]), 20%; in the experiment with Lolium perenne (LOLPE) (setting [5]), 50%; in the experiment with Lolium perenne (LOLPE) (setting [6]), 10%; in experiment [2] (setting [7]), 30%; in experiment [2] (setting [8]), 0%. Moreover, the pest or weed control at 250 g/ha in the experiment with Avena fatua (AVEFA) (setting [9]) was 40%; with Avena fatua (AVEFA) (setting [10]), 0%.

As for `Cc1cc(-c2ncc(F)cc2F)cc(C)c1C1C(=O)CC(CC(=O)NCc2cccc(Br)c2)C1=O` (stereo not drawn) [Compound B90], the pest or weed control at 250 g/ha was determined as 100% in experiment [1] (setting [19]); 100% in experiment [1] (setting [20]); 100% in the experiment on Lolium perenne (LOLPE) (setting [21]); 100% in the experiment on Lolium perenne (LOLPE) (setting [22]); 100% in experiment [2] (setting [23]); 90% in experiment [2] (setting [24]). The figures for the pest or weed control at 250 g/ha with Avena fatua (AVEFA) (setting [25]) and with Avena fatua (AVEFA) (setting [26]) were 100% and 70%, respectively.

In the case of `Cc1cc(C)c(C2C(=O)CC(CC(=O)NCCC3=CCCCC3)C2=O)c(C)c1` (stereo not drawn) [Compound A91], the pest or weed control at 250 g/ha in experiment [1] (setting [3]) was 0%; in experiment [1] (setting [4]) it was 20%; with Lolium perenne (LOLPE) (setting [5]) it was 70%; in the experiment with Lolium perenne (LOLPE) (setting [6]), 70%; in experiment [2] (setting [7]), 10%; in experiment [2] (setting [8]) it was 30%. In addition, the pest or weed control at 250 g/ha turned out to be 0% in the experiment with Avena fatua (AVEFA) (setting [9]) and 30% in the experiment with Avena fatua (AVEFA) (setting [10]).

On to `Cc1cc(C)c(C2C(=O)CC(CC(=O)NCc3ccc(OC(F)(F)F)cc3)C2=O)c(C)c1` (stereo not drawn) [Compound A92], for which the pest or weed control at 250 g/ha is 80% in experiment [1] (setting [3]); 80% in experiment [1] (setting [4]); 40% with Lolium perenne (LOLPE) (setting [5]); 90% in the experiment with Lolium perenne (LOLPE) (setting [6]); 60% in experiment [2] (setting [7]); 70% in experiment [2] (setting [8]). In addition, the results for the pest or weed control at 250 g/ha in the experiment on Avena fatua (AVEFA) (setting [9]) and with Avena fatua (AVEFA) (setting [10]) were 70% and 60%, respectively.

On to `Cc1cc(-c2ncc(C#N)cn2)cc(C)c1C1C(=O)CC(CC(=O)N2CCOCC2)C1=O` (stereo not drawn) [Compound B288], for which the pest or weed control at 250 g/ha in experiment [1] (setting [11]) came to 100%; in experiment [1] (setting [12]) it was 90%; with Lolium perenne (LOLPE) (setting [13]) it was 90%; in the experiment on Lolium perenne (LOLPE) (setting [14]), 90%; in experiment [2] (setting [15]) it was 100%; in experiment [2] (setting [16]), 80%. For the same compound, the pest or weed control at 250 g/ha with Avena fatua (AVEFA) (setting [17]) is 90%; with Avena fatua (AVEFA) (setting [18]) it was 80%.
